Experimental findings from patent US6492364B1, “Triazolo and derivatives as chemokine inhibitors” (Toray Industries, Inc., priority 1998, dated 2002) are described below.

Where a name gives a salt, the structure may show the parent alone. Where only a bound is given, the exact number is not on record here.

One series concerns the target T1, CCR3 (Homo sapiens, UniProt P51677).
T1 construct: endogenous in cells; host or cells: human peripheral blood eosinophils (primary cells)
T1 sequence (P51677 1-355): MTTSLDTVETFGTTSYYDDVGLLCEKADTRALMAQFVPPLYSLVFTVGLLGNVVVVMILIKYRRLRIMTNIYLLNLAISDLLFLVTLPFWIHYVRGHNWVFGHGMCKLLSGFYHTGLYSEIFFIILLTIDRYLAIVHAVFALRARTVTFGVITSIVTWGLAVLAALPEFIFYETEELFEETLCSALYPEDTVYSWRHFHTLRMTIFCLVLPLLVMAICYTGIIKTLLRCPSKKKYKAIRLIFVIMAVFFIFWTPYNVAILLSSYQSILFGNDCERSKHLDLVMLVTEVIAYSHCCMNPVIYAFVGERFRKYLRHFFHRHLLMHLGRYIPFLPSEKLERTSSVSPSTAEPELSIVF
The experiment in a line: Inhibition of eotaxin-induced intracellular calcium increase in human eosinophils (Fura-2). Format: cell-based. Particulars: human peripheral blood eosinophils, stimulated with eotaxin (5 ng/ml), intracellular calcium level. The protocol: (§1) The CCR receptor-inhibiting activities of the compounds represented by Formula I will now be described. Using human eosinophil or human monocytic cell line (THP-1), the CCR receptor-inhibiting activities were studied.
(§2) Human peripheral blood eosinophils or THP- l cells were suspended in RPMI-1640 culture medium containing 1% fetal calf serum (FCS) and cultured at 37° C. for 30 minutes in the presence of 5 μM of Fura-2/AM (DOJINDO LABORATORIES). The cells were washed twice with assay buffer (140 mM NaCl, 10 mM KCl, 1.8mM CaCl2, 1 mM MgCl2, 1 mM Na2HPO4, 25mM HEPES, 5 mM glucose, 1% BSA; pH7.4) at 4° C. to remove Fura-2/AM which was not taken into the cells. The cells were suspended in the assay buffer to a final cell density of 1×10^6 cells/ml and the cell suspension was stored in the dark until assay. The calcium levels in the cells were measured by using CAF100 commercially available from Nippon Koden Co. That is, 490 μl of the suspension of the cells loaded with Fura-2 was placed in a cuvette and the cuvette was set in CAF100. After the fluorescence intensities at 340 nm and 380 nm of excitation, as well as the ratio thereof, were stabilized, 10 μl of 250 μM solution of each test compound was injected. The change in the calcium level in the cells within one minute from the stimulation was measured in terms of the ratio (F340/F380) of the intensity of the excitation light at 340 nm to that of the light at 380 nm, and the intracellular calcium level induced by the stimulation was defined as the peak of the ratio. One minute after exposure of the cells to each test compound, the cells were stimulated with eotaxin (5 ng/ml), RANTES (40 ng/ml) or MCP-1 (10 ng/ml). It is thought that the responses by THP-1 cells to RANTES and MCP-1 are mediated through CCR1 and CCR2, respectively; The response of eosinophils to eotaxin is thought to be mediated through CCR3. The increase of the intracellular calcium level was compared to that of the corresponding case wherein the cells were not treated with the test compound.

In another series the target is T2, CCR1 (Homo sapiens, UniProt P32246).
T2 construct: endogenous in cells; host or cells: THP-1 (human monocytic cell line)
T2 sequence (P32246 1-355): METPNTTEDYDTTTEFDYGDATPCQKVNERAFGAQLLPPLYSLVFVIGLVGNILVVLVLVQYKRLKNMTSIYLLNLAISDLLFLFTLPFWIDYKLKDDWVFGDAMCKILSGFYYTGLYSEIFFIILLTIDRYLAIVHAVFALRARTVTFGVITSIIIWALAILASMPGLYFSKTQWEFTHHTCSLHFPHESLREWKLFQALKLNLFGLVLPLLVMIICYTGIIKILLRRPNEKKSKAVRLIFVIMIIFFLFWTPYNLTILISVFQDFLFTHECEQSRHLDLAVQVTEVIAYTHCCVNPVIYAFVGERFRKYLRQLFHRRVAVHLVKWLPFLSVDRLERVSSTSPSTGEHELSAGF
Kind of series: Inhibition of RANTES-induced intracellular calcium increase in THP-1 cells (Fura-2). Particulars: human monocytic cell line THP-1, stimulated with RANTES (40 ng/ml), intracellular calcium level. It counts as cell-based. The protocol:
as §1, §2

Another series concerns the target T3, CCR2 (Homo sapiens, UniProt P41597).
T3 construct: endogenous in cells; host or cells: THP-1 (human monocytic cell line)
T3 sequence (P41597 1-360 isoform P41597-2): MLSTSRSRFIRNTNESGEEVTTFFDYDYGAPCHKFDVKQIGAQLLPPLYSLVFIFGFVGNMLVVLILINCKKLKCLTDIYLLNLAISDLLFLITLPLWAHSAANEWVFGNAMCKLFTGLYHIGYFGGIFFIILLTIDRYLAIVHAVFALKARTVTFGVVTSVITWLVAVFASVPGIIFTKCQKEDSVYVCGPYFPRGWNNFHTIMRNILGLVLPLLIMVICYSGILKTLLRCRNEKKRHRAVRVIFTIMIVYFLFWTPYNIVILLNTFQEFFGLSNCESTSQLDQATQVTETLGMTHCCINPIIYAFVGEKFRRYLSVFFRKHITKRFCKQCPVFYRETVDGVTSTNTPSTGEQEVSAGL
The experiment in a line: Inhibition of MCP-1-induced intracellular calcium increase in THP-1 cells (Fura-2). It counts as cell-based. The note with it: human monocytic cell line THP-1, stimulated with MCP-1 (10 ng/ml), intracellular calcium level. The protocol: as §1, §2

The compound `Cc1nnc2n(CCCN3CCN(Cc4ccc(Cl)c(Cl)c4)CC3)c(=O)c3ccccc3n12` [Compound 93, 2,4,5,7-Tetraaza-7-(3-(4-(3,4-dichlorobenzyl)piperazine-1-yl)propyl)-3-methyltricyclo[7.4.0.0<2,6>]trideca-1(13),3,5,9(10),11-pentaene-8-one] registered a melting point of 77 to 79 °C.

For the compound `Cc1nnc2n(CCCN3CCC(C(c4ccccc4)c4ccccc4)CC3)c(=O)c3ccccc3n12` (as salt: hydrochloride) [Compound 14], the melting point was in the range of 172.8 to 190.5 °C.

The compound `CCc1nnc2n(CCCN3CCN(C(c4ccccc4)c4ccccc4)CC3)c(=O)c3ccccc3n12` [Compound 27] registered a melting point of 199 to 201 °C.

Compound `Cc1nnc2n(CCCN3CCN(C(c4ccccc4)c4ccccc4)CC3)c(=O)c3cc(N(C)C)ccc3n12` [Compound 47] gave a melting point of 189 to 191 °C.

On to `Cc1nnc2c(CCCN3CCC(C(c4ccccc4)c4ccccc4)CC3)nc3ccccc3n12` [Compound 74], for which the melting point was in the range of 88 to 90 °C.

With `CCCc1nnc2n(CCCN3CCN(C(c4ccccc4)c4ccccc4)CC3)c(=O)c3ccccc3n12` [Compound 28], the melting point was in the range of 150 to 152 °C. Moreover, the 50% inhibitory concentration (IC50) at CCR3 was 1.4 µM. Further, the IC50 on CCR1 amounted to 9.3 µM. The IC50 on CCR2 is above 160 µM.

`Cc1nnc2n(CCCN3CCN(C(c4ccccc4)c4ccccc4)CC3)c(=O)c3ccc(C(F)(F)F)cc3n12` [Compound 45] registered a melting point of 154 to 159.5 °C.

`Cc1nnc2n(-c3cccc(N4CCC(C(c5ccccc5)c5ccccc5)CC4)c3)c(=O)c3ccccc3n12` [Compound 85] returned a melting point of 277 to 279 °C.

The compound `Cc1nnc2n(CCCCN3CCN(C(c4ccccc4)c4ccccc4)CC3)c(=O)c3ccccc3n12` [Compound 55] displayed a melting point of 157 to 159 °C.

For `Cc1nnc2n(CCCN3CCCC(c4c[nH]c5ccccc45)C3)c(=O)c3ccccc3n12` (stereo not drawn) [Compound 5, 2,4,5,7-Tetraaza-7-(3-(3-indole-3-ylpiperidyl)propyl)-3-methyltricyclo[7.4.0.0<2,6>]trideca-1(13),3,5,9(10),11-pentaene-8-one], the melting point was 207 to 212 °C (dec.). In addition, on CCR1, the 50% inhibitory concentration (IC50) amounted to 12.9 µM. For the same compound, the IC50 at CCR2 worked out at 48.1 µM.

Regarding `Cc1nnc2n(CCCN3CCC(=C(c4ccccc4)c4ccccc4)CC3)c(=O)c3ccccc3n12` [Compound 7], the melting point lay within 157 to 159 °C.

Regarding `COc1ccc2c(c1)c(=O)n(CCCN1CCN(C(c3ccccc3)c3ccccc3)CC1)c1nnc(C)n21` [Compound 33], the melting point was in the range of 194 to 196 °C.

Consider `Cc1nnc2n(CCCN3CCN(C4CCCCC4)CC3)c(=O)c3ccccc3n12` [Compound 12], for which the melting point was 118 to 120 °C.

Regarding `Cc1nnc2n(CCCN3CCN(C(c4ccccc4)c4ccccc4)CC3)c(=O)c3cc(Cl)ccc3n12` [Compound 38], the melting point lay within 116 to 118 °C. Also, the IC50 at CCR3 worked out at 0.5 µM. In addition, at CCR1, the half-inhibitory concentration (IC50) is 16 µM. Besides, on CCR2, the IC50 is above 160 µM.

Regarding `Cc1nnc2n(CCCN3CCC(c4c[nH]c5ccccc45)CC3)c(=O)c3ccccc3n12` [Compound 6, 2,4,5,7-Tetraaza-7-(3-(4-indole-3-ylpiperidyl)propyl)-3-methyltricyclo[7.4.0.0<2,6>]trideca-1(13),3,5,9(10),11-pentaene-8-one], the melting point is 207 to 209 °C (dec.).

Consider `Cc1nnc2n(CCCCN3CCC(C(c4ccccc4)c4ccccc4)CC3)c(=O)c3ccccc3n12` (as salt: hydrochloride) [Compound 56], for which the melting point is 166.5 to 180 °C.

Compound `Cc1nnc2n(CCN3CCN(C(c4ccccc4)c4ccccc4)CC3)c(=O)c3ccccc3n12` [Compound 50] returned a melting point of 217 to 219 °C.

In turn, `Cc1nnc2n(CCCN3CCN(Cc4ccc(Oc5ccccc5)cc4)CC3)c(=O)c3ccccc3n12` (as salt: hydrochloride) [Compound 20, 2,4,5,7-Tetraaza-3-methyl-7-(3-(4-((4-phenoxyphenyl)methyl)piperazinyl)propyl)tricyclo[7.4.0.0<2,6>]trideca-1(13),3,5,9(10),11-pentaene-8-one] displayed a melting point of 229 to 237 °C.

`Cc1nnc2n(CCCN3CCN(C(c4ccccc4)c4ccccc4)CC3)c(=O)c3ccccc3n12` [Compound 26] yielded a melting point of 168 to 173 °C. Moreover, the IC50 on CCR3 is 0.3 µM. The IC50 at CCR1 worked out at 4.1 µM. Also, the IC50 at CCR2 was above 160 µM.

Consider `Cc1nnc2n(CCCN3CCN(Cc4ccccc4-c4ccccc4)CC3)c(=O)c3ccccc3n12` [Compound 11, 2,4,5,7-Tetraaza-3-methyl-7-(3-(4-((2-phenylphenyl)methyl)piperazinyl)propyl)tricyclo[7.4.0.0<2,6>]trideca-1(13),3,5,9(10),11-pentaene-8-one], for which the IC50 on CCR3 is 3.6 µM; on CCR1 it was 9.1 µM; at CCR2 it was above 160 µM.

`COc1cc2c(=O)n(CCCN3CCN(C(c4ccccc4)c4ccccc4)CC3)c3nnc(C)n3c2cc1OC` [Compound 35]: the melting point fell in the range of 184 to 186 °C.

For the compound `Cc1nnc2n(CCCN3CCN(Cc4cccc(Oc5ccccc5)c4)CC3)c(=O)c3ccccc3n12` (as salt: hydrochloride) [Compound 17, 2,4,5,7-Tetraaza-3-methyl-7-(3-(4-((3-phenoxyphenyl)methyl)piperazinyl)propyl)tricyclo[7.4.0.0<2,6>]trideca-1(13),3,5,9(10),11-pentaene-8-one], the melting point was 225 to 230.5 °C.

Consider `Cc1nnc2n(CCCN3CCN(C(c4ccccc4)c4ccccc4)CC3)c(=O)c3cc(O)ccc3n12` [Compound 40], for which the melting point was 225 to 228 °C.
